Reference: paper PMC11647681, “Discovery of Non-Covalent Inhibitors for SARS-CoV-2 PLpro: Integrating Virtual Screening, Synthesis, and Experimental Validation” (ACS Medicinal Chemistry Letters, 2024)
Values after ≈ are worked out from the molar mass of the structure shown. Values joined by “and” are separate entries in the source; they are usually repeats but may differ in a detail not shown here. Equal entries are not always repeated. Where two headings read alike, the source gives them in different places.

Columns and labels:
[1] = test system: PLpro; conditions: cited from earlier work; for IC50: PLpro
[2] = target: SARS-CoV-2 PLpro (Severe acute respiratory syndrome coronavirus 2, UniProt P0DTD1); assay: SARS-CoV-2 PLpro inhibition assay (enzymatic, LKGG-AMC substrate); type: biochemical; conditions: for IC50: enzymatic assay; for Ki: Hanes-Woolf plot; for Ki / inhibition mechanism: kinetic characterization
[3] = in vitro; conditions: human
[4] = physchem
[5] = mouse, microsomes, 0.5 h; cited from earlier work
[6] = rat, microsomes, 0.5 h; cited from earlier work
[7] = in vitro; conditions: chlorocebus sabaeus

Structure (SMILES)	IC50 [2]	CC50 [3]	solubility [4]	CC50 [7]	further results
CCn1ccc(-c2cc(-c3cnn(C)c3)cc([C@@H](C)NC(=O)c3cc(OCCN(C)C)ccc3C)c2)n1 [Jun12682]					protease, deubiquitinase, and deISGylase activity of PLpro [1]: inhibited
CCN(CCNc1nc2ccccc2[nH]1)Cc1cc(Cl)ccc1O [Compound 2, CCN(CCNc1nc2ccccc2[nH]1)Cc1cc(ccc1O)Cl]	102 µM				
COc1ccc(-c2ccc3nccc(N[C@@H]4CCNC4)c3n2)cn1 [Compound 85, COC1=NC=C(C2=NC3=C(N=CC=C3N[C@@H]4CCNC4)C=C2)C=C1]	15.1 ± 2.19 µM	26.3 µM	190 µM (≈ 61.1 µg/mL)	7.47 µM	fold improvement in PLpro activity ([2]; 85 compared with 1): 5 fold; Ki [2]: 22.9 µM and 20.1 µM; inhibition mechanism [2]: competitive; inhibition test in absence and presence of CHAPS detergent (aggregation check) ([2]; with and without 1 mM CHAPS): No significant difference; Microsomal stability, % remaining after 30 min [5]: 66.61%; Microsomal stability, % remaining after 30 min [6]: 62.68%
Cn1ccc(-c2ccc3nccc(N[C@@H]4CCNC4)c3n2)cc1=O [Compound 1, Cn1ccc(cc1=O)-c1ccc2nccc(NC3CC[NH2+]C3)c2n1]	73.6 µM	> 50 µM	195 µM (≈ 62.7 µg/mL)	23.8 µM	Ki [2]: 22.4 ± 6.7 µM; inhibition mechanism [2]: competitive; inhibition test in absence and presence of Triton (aggregation check) ([2]; with or without 0.01% Triton): no significant differences
O=C(NCc1cccc(F)c1)c1ncc2ccccn12 [Compound 6, Fc1cccc(CNC(=O)c2ncc3ccccn23)c1]	194 µM				
CCN(CC)Cc1cc(Nc2nc3ccccc3[nH]2)ccc1O [Compound 3, CCN(CC)Cc1cc(ccc1O)Nc1nc2ccccc2[nH]1]	127 µM				
NCCNc1nccc2[nH]c(-c3ccc(F)c(F)c3)nc12 [Compound 4, NCCNc1nccc2[nH]c(nc12)-c1ccc(c(c1)F)F]	130 µM				
CNC(=O)c1ccc(-c2ccc3nccc(NC4CCNCC4)c3n2)cn1 [Compound 84, O=C(NC)C1=NC=C(C2=NC3=C(N=CC=C3NC4CCNCC4)C=C2)C=C1]	39.5 ± 4.62 µM	> 50 µM	175 µM (≈ 63.4 µg/mL)	47.3 µM	
S=C(SSC(=S)N1CCOCC1)N1CCOCC1 [RI173]					IC50 [1]: 0.2 µM
O=C1CN(C(=O)CNC(=O)c2ccc3c(c2)B(O)OC3)CCN1 [Compound 5, O[B]1OCc2ccc(cc21)C(=O)NCC(=O)N1CCNC(=O)C1]	137 µM				
CN1CCC(Nc2ccnc3ccc(-c4ccc(C(=O)NCCO)nc4)nc23)CC1 [Compound 82, O=C(NCCO)C1=NC=C(C2=NC3=C(N=CC=C3NC4CCN(C)CC4)C=C2)C=C1]	79.8 ± 20.4 µM	> 50 µM	200 µM (≈ 81.3 µg/mL)	> 50 µM	
CS(=O)(=O)c1cccc(-c2ccc3nccc(N4CCNCC4)c3n2)c1 [Compound 83, O=S(C1=CC=CC(C2=NC3=C(N=CC=C3N4CCNCC4)C=C2)=C1)(C)=O]	54.8 µM	> 50 µM	180 µM (≈ 66.3 µg/mL)	43.6 µM	Microsomal stability, % remaining after 30 min [5]: 60.24%; Microsomal stability, % remaining after 30 min [6]: 50.41%
